In article PMC11571108, “Targeting PfCLK3 with Covalent Inhibitors: A Novel Strategy for Malaria Treatment” (Journal of Medicinal Chemistry, 2024):

Columns and labels:
[1] = Microsomal stability; format: in vitro ADME; conditions: human, liver microsomes, 0.5 mg/mL microsomes, 37 °C
Procedure: Peak areas were determined from extracted ion chromatograms.

[2] = target: EphA5(h) (Homo sapiens, UniProt P54756); experiment: biochemical
Procedure: (§1) Compounds were evaluated using Eurofins Discovery’s KinaseProfiler Diversity Panel of 58 representative kinases. KinaseProfiler is a radiometric assay using [γ-^33P]-ATP to measure the phosphorylation of individual kinase substrates. A representative protocol for Abl is given below. Further details can be found by visiting the Eurofins Discovery Web site.
(§2) The reaction is initiated by the addition of the Mg/ATP mix. After incubation for 40 min at room temperature, the reaction is stopped by the addition of phosphoric acid to a concentration of 0.5%.

[3] = target: EphB4(h) (Homo sapiens, UniProt P54760); experiment: biochemical
Procedure: as §1, §2

[4] = target: Fyn(h) (Homo sapiens, UniProt P06241); experiment: biochemical
Procedure: as §1, §2

[5] = target: IGF-1R(h) (Homo sapiens, UniProt P08069); experiment: biochemical
Procedure: as §1, §2

[6] = target: IRAK4(h) (Homo sapiens, UniProt Q9NWZ3); experiment: biochemical
Procedure: as §1, §2

[7] = target: JAK2(h) (Homo sapiens, UniProt O60674); experiment: biochemical
Procedure: as §1, §2

[8] = target: LOK(h) (Homo sapiens, UniProt O94804); experiment: biochemical
Procedure: as §1, §2

[9] = target: Lyn(h) (Homo sapiens, UniProt P07948); experiment: biochemical
Procedure: as §1, §2

[10] = target: MAPKAP-K2(h) (Homo sapiens, UniProt P49137); experiment: biochemical
Procedure: as §1, §2

[11] = target: MEK1(h) (Homo sapiens, UniProt Q02750); experiment: biochemical
Procedure: as §1, §2

[12] = target: MLK1(h) (Homo sapiens, UniProt P80192); experiment: biochemical
Procedure: as §1, §2

[13] = target: MSK2(h) (Homo sapiens, UniProt O75676); experiment: biochemical
Procedure: as §1, §2

[14] = target: MST1(h) (Homo sapiens, UniProt Q13043); experiment: biochemical
Procedure: as §1, §2

[15] = target: Mnk2(h) (Homo sapiens, UniProt Q9HBH9); experiment: biochemical
Procedure: as §1, §2

[16] = target: NEK2(h) (Homo sapiens, UniProt P51955); experiment: biochemical
Procedure: as §1, §2

[17] = target: PAK2(h) (Homo sapiens, UniProt Q13177); experiment: biochemical
Procedure: as §1, §2

[18] = target: PI3 Kinase (p120g)(h) (Homo sapiens, UniProt P48736); experiment: biochemical
Procedure: as §1, §2

[19] = target: PKCθ(h) (Homo sapiens, UniProt Q04759); experiment: biochemical
Procedure: as §1, §2

[20] = target: PKG1α(h) (Homo sapiens, UniProt Q13976); experiment: biochemical
Procedure: as §1, §2

[21] = target: PRAK(h) (Homo sapiens, UniProt Q8IW41); experiment: biochemical
Procedure: as §1, §2

[22] = target: Plk3(h) (Homo sapiens, UniProt Q9H4B4); experiment: biochemical
Procedure: as §1, §2

[23] = target: ROCK-I(h) (Homo sapiens, UniProt Q13464); experiment: biochemical
Procedure: as §1, §2

[24] = target: Rsk1(h) (Homo sapiens, UniProt Q15418); experiment: biochemical
Procedure: as §1, §2

[25] = target: TAK1(h) (Homo sapiens, UniProt O43318); experiment: biochemical
Procedure: as §1, §2

[26] = target: eEF-2K(h) (Homo sapiens, UniProt O00418); experiment: biochemical
Procedure: as §1, §2

[27] = target: mTOR(h) (Homo sapiens, UniProt P42345); experiment: biochemical
Procedure: as §1, §2

[28] = target: p70S6K(h) (Homo sapiens, UniProt P23443); experiment: biochemical
Procedure: as §1, §2

[29] = target: T1, PI3 Kinase (p110a/p85a)(h) (Homo sapiens, UniProt P42336); experiment: KinaseProfiler radiometric assay; format: biochemical; conditions: 1 µM compound
T1 construct: purchased Eurofins Discovery KinaseProfiler
From the text: (§3) A representative protocol for Abl is given below.

[30] = target: T2, PI3 Kinase (p110b/p85a)(h) (Homo sapiens, UniProt P42338); experiment: KinaseProfiler radiometric assay; format: biochemical; conditions: 1 µM compound
T2 construct: purchased Eurofins Discovery KinaseProfiler
From the text: as §3

[31] = target: T3, PI3 Kinase (p110d/p85a)(h) (Homo sapiens, UniProt O00329); experiment: KinaseProfiler radiometric assay; format: biochemical; conditions: 1 µM compound
T3 construct: purchased Eurofins Discovery KinaseProfiler
From the text: as §3

[32] = target: Abl(h) (Homo sapiens, UniProt P00519); experiment: biochemical
[33] = target: ASK1(h) (Homo sapiens, UniProt Q99683); experiment: biochemical
[34] = target: CDK1/cyclinB(h) (Homo sapiens, UniProt P06493); experiment: biochemical
[35] = target: CDK6/cyclinD3(h) (Homo sapiens, UniProt Q00534); experiment: biochemical
[36] = target: CHK1(h) (Homo sapiens, UniProt O14757); experiment: biochemical
[37] = target: c-RAF(h) (Homo sapiens, UniProt P04049); experiment: biochemical
[38] = target: DRAK1(h) (Homo sapiens, UniProt Q9UEE5); experiment: biochemical

Chain of eEF-2K(h) (O00418 whole entry): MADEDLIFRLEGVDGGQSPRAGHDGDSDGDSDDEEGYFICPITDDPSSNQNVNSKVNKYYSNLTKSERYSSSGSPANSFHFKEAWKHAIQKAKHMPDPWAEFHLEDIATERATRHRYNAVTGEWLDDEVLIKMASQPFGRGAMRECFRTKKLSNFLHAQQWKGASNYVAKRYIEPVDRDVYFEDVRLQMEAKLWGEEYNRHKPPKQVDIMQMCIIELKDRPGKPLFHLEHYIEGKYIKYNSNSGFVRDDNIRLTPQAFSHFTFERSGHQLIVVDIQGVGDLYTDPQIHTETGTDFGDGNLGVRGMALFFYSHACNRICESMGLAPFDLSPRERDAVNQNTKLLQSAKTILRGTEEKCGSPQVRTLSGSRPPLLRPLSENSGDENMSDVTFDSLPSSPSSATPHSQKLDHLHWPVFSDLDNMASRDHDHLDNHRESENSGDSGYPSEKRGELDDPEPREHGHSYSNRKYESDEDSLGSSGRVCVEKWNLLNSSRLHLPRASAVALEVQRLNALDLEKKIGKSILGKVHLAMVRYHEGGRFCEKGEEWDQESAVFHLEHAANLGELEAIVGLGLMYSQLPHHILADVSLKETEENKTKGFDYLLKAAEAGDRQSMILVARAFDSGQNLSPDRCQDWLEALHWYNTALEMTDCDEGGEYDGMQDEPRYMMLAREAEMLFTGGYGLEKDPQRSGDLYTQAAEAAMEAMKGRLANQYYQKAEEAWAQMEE
Chain of Abl(h) (P00519 whole entry): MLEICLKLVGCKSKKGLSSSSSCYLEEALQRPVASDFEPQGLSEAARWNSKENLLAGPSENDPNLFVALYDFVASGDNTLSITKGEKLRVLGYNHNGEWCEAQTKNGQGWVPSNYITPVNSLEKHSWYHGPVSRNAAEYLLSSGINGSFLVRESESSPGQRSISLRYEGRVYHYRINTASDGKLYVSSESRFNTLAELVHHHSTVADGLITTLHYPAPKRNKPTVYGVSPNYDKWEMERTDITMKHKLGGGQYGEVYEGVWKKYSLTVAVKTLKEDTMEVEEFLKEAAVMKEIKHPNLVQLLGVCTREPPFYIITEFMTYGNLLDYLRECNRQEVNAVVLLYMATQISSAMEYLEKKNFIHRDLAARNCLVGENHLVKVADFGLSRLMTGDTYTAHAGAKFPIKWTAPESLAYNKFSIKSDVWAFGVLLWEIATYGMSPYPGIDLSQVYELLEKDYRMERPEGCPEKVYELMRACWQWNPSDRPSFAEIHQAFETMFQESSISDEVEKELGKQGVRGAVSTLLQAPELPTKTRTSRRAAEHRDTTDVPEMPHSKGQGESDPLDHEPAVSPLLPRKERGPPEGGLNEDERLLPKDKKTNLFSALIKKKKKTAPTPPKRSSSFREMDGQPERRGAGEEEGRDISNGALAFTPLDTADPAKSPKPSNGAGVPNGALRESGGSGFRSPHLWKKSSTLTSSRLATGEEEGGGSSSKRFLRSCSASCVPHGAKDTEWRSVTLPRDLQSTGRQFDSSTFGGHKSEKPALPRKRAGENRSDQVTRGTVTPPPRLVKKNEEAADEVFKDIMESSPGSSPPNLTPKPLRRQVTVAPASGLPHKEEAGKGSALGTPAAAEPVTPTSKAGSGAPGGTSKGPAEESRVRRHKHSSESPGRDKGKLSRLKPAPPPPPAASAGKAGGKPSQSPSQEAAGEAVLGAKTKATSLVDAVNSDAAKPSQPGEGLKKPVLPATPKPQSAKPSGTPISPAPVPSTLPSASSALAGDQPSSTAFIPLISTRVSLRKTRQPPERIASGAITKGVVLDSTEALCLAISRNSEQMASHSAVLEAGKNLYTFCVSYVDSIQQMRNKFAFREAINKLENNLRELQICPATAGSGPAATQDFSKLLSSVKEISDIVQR
Chain of c-RAF(h) (P04049 whole entry): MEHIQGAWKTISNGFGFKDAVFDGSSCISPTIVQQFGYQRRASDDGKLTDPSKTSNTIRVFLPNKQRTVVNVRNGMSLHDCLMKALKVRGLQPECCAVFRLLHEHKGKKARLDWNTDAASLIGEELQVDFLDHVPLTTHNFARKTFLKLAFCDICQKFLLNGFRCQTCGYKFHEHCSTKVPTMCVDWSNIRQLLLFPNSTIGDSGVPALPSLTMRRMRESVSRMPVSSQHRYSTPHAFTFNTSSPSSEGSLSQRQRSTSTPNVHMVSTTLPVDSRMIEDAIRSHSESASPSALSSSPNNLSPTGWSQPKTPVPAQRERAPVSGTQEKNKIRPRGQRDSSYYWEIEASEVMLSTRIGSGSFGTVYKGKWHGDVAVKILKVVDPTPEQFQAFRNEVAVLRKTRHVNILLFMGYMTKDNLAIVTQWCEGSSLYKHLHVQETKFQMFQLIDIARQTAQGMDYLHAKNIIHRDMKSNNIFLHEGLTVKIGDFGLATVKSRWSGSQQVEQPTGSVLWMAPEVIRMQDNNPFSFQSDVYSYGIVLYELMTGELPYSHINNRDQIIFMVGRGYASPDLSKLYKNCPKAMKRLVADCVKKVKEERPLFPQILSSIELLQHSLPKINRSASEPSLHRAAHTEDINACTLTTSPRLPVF
Chain of Fyn(h) (P06241 whole entry): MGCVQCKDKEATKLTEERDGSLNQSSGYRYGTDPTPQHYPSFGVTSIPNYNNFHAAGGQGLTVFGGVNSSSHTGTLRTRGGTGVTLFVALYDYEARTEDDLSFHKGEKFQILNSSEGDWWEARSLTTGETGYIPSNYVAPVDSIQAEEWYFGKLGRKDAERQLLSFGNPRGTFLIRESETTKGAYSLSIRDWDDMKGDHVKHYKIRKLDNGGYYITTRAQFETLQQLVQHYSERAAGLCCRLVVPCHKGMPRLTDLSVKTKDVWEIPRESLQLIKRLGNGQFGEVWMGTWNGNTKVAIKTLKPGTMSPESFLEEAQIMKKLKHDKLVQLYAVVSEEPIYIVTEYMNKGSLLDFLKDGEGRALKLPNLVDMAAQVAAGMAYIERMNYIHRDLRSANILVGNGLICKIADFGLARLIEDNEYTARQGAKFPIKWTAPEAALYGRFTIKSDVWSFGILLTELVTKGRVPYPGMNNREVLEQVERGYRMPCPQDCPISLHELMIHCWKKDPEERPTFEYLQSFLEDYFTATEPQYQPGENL
Chain of PAK2(h) (Q13177 whole entry): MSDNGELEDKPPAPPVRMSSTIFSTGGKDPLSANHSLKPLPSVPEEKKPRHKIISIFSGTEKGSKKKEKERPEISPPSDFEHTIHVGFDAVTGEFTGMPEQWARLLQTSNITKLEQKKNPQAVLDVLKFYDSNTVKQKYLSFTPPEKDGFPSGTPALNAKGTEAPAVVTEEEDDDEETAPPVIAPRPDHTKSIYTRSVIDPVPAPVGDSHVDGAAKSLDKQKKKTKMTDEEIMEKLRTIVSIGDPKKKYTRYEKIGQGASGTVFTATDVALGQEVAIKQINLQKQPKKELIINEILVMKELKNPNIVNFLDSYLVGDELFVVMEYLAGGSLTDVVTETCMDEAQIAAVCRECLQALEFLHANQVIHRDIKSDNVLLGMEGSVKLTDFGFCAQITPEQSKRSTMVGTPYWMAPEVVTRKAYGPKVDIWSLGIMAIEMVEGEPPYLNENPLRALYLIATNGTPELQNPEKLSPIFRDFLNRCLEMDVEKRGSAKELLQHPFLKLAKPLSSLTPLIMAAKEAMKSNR
Chain of CDK6/cyclinD3(h) (Q00534 whole entry): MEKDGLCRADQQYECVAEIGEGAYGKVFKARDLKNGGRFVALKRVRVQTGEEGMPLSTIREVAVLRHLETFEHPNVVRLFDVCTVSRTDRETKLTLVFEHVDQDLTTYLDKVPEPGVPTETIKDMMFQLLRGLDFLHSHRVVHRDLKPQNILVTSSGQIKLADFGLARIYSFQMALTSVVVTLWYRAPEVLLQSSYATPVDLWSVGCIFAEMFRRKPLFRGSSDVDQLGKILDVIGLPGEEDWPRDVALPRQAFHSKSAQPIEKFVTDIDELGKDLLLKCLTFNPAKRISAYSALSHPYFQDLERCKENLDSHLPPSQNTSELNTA
Chain of CDK6/cyclinD3(h) (P30281 whole entry partner): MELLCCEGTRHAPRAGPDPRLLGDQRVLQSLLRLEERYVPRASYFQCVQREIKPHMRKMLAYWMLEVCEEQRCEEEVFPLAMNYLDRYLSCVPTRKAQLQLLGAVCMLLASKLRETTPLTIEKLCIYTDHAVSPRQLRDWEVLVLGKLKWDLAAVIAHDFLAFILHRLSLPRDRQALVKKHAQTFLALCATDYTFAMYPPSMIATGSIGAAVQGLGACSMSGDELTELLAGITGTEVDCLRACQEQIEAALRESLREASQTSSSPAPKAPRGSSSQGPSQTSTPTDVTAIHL
Chain of p70S6K(h) (P23443 whole entry): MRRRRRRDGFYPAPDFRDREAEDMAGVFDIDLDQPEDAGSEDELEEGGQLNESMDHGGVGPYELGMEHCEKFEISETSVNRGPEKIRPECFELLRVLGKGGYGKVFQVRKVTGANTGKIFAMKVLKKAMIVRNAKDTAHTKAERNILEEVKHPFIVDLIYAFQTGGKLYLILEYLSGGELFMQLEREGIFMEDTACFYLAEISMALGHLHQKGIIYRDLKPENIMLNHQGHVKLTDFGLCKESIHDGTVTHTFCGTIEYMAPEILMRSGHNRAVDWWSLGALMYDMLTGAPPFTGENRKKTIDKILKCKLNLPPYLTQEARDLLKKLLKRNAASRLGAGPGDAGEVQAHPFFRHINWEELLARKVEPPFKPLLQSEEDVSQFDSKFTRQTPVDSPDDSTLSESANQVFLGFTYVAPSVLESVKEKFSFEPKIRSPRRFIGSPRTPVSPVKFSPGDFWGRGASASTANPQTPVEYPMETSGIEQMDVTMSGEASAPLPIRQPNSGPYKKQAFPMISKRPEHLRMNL
Chain of TAK1(h) (O43318 1-303 limits assumed): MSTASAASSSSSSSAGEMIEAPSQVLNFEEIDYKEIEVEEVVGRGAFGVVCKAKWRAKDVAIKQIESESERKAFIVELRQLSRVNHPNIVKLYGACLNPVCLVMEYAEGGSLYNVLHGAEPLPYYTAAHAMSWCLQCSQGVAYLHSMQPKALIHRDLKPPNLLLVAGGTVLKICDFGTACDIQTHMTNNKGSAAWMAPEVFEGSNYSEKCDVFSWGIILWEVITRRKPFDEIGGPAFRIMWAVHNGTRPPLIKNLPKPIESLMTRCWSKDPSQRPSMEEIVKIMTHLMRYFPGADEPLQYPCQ

Q: For `CCN(CC)Cc1ccc(OC)c(-c2cc3c(-c4ccc(C(=O)O)c(C(C)C)c4)ccnc3[nH]2)c1` [Compound 1, TCMDC-135051], which microsomal CLint at 1 μM ([1]; read-out: HLM CLint (intrinsic clearance)) is on record?
A: The microsomal CLint at 1 μM was < 7.5 µL/min/mg.

Q: What about the half-life at 1 μM ([1]; read-out: HLM t1/2) of the same compound?
A: The half-life at 1 μM was > 184 min.

Q: And the remaining activity at 1 µM [2]?
A: The remaining activity at 1 µM was 97%.

Q: What about the remaining activity at 1 µM [3] of the same compound?
A: Its remaining activity at 1 µM is 104%.

Q: What about the remaining activity at 1 µM [4] of the same compound?
A: Its remaining activity at 1 µM is 49%.

Q: And the remaining activity at 1 µM [5]?
A: Its remaining activity at 1 µM is 94%.

Q: What about the remaining activity at 1 µM [6] of the same compound?
A: Its remaining activity at 1 µM is 27%.

Q: And the remaining activity at 1 µM [7]?
A: The remaining activity at 1 µM was 20%.

Q: What about the remaining activity at 1 µM [8] of the same compound?
A: Its remaining activity at 1 µM is 37%.

Q: And the remaining activity at 1 µM [9]?
A: The remaining activity at 1 µM was 28%.

Q: What about the remaining activity at 1 µM [10] of the same compound?
A: The remaining activity at 1 µM was 94%.

Q: And the remaining activity at 1 µM [11]?
A: The remaining activity at 1 µM was 100%.

Q: What about the remaining activity at 1 µM [12] of the same compound?
A: Its remaining activity at 1 µM is 92%.

Q: What about the remaining activity at 1 µM [13] of the same compound?
A: The remaining activity at 1 µM was 100%.

Q: What about the remaining activity at 1 µM [14] of the same compound?
A: Its remaining activity at 1 µM is 84%.

Q: What about the remaining activity at 1 µM [15] of the same compound?
A: Its remaining activity at 1 µM is 38%.

Q: And the remaining activity at 1 µM [16]?
A: Its remaining activity at 1 µM is 105%.

Q: What about the remaining activity at 1 µM [17] of the same compound?
A: The remaining activity at 1 µM was 110%.

Q: And the remaining activity at 1 µM [18]?
A: The remaining activity at 1 µM was 96%.

Q: And the remaining activity at 1 µM [19]?
A: Its remaining activity at 1 µM is 108%.

Q: And the remaining activity at 1 µM [20]?
A: The remaining activity at 1 µM was 105%.

Q: What about the remaining activity at 1 µM [21] of the same compound?
A: The remaining activity at 1 µM was 74%.

Q: And the remaining activity at 1 µM [22]?
A: Its remaining activity at 1 µM is 100%.

Q: And the remaining activity at 1 µM [23]?
A: The remaining activity at 1 µM was 117%.

Q: What about the remaining activity at 1 µM [24] of the same compound?
A: The remaining activity at 1 µM was 105%.

Q: What about the remaining activity at 1 µM [25] of the same compound?
A: Its remaining activity at 1 µM is 45%.

Q: And the remaining activity at 1 µM [26]?
A: Its remaining activity at 1 µM is 100%.

Q: What about the remaining activity at 1 µM [27] of the same compound?
A: The remaining activity at 1 µM was 100%.

Q: And the remaining activity at 1 µM [28]?
A: The remaining activity at 1 µM was 100%.

Q: And the remaining activity at 1 µM [29]?
A: Its remaining activity at 1 µM is 100%.

Q: What about the remaining activity at 1 µM [30] of the same compound?
A: Its remaining activity at 1 µM is 99%.

Q: And the remaining activity at 1 µM [31]?
A: Its remaining activity at 1 µM is 73%.

Q: What about the remaining activity at 1 µM [32] of the same compound?
A: Its remaining activity at 1 µM is 68%.

Q: And the remaining activity at 1 µM [33]?
A: The remaining activity at 1 µM was 92%.

Q: And the remaining activity at 1 µM [34]?
A: Its remaining activity at 1 µM is 15%.

Q: What about the remaining activity at 1 µM [35] of the same compound?
A: The remaining activity at 1 µM was 82%.

Q: What about the remaining activity at 1 µM [36] of the same compound?
A: Its remaining activity at 1 µM is 101%.

Q: And the remaining activity at 1 µM [37]?
A: The remaining activity at 1 µM was 106%.

Q: What about the remaining activity at 1 µM [38] of the same compound?
A: Its remaining activity at 1 µM is 83%.
